Patent US8975415B2, “Chromane compounds” (CoMentis, Inc., priority 2012, dated 2015)
Where a name gives a salt, the structure may show the parent alone.

Legend:
[1] = molecular target: hERG potassium channel (Homo sapiens (Human), UniProt Q12809); experiment: hERG inhibition, automated planar patch-clamp in hERG-expressing CHO cells; conditions: for IC50: read-out: Test Example 5 hERG IC50, whole-cell patch clamp, room temperature
[2] = molecular target: T1, BACE1 (Homo sapiens (Human), UniProt P56817); experiment: Measurement of Aβ production inhibition in cell (SK-N-BE(2) neuroblastoma cells, Aβ40 ELISA); conditions: SK-N-BE(2) cells, 6 hours
Target sequence in this assay (P56817 46-501): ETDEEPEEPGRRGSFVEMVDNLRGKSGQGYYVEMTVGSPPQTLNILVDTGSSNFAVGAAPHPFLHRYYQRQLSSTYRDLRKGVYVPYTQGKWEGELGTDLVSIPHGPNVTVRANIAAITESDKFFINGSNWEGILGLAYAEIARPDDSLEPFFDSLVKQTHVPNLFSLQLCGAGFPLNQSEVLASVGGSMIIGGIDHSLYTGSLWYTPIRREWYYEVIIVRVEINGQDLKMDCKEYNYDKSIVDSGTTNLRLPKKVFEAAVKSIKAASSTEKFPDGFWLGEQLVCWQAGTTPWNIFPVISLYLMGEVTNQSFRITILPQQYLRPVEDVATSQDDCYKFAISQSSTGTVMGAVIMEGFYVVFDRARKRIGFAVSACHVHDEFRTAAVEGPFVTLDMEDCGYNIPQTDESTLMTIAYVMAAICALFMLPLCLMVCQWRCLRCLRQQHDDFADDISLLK

[3] = molecular target: T1, BACE1; experiment: Measurement of BACE1 inhibition by fluorescence resonance energy transfer (FRET), MCA substrate; conditions: FRET; for IC50: read-out: Test Example 1 IC50, MCA-SEVNLDAEFK(DNP)-NH2 substrate, pH 4.4; for Ki: read-out: Test Example 1 BACE1 MCA Ki, MCA substrate
Target sequence in this assay (P56817 75-416): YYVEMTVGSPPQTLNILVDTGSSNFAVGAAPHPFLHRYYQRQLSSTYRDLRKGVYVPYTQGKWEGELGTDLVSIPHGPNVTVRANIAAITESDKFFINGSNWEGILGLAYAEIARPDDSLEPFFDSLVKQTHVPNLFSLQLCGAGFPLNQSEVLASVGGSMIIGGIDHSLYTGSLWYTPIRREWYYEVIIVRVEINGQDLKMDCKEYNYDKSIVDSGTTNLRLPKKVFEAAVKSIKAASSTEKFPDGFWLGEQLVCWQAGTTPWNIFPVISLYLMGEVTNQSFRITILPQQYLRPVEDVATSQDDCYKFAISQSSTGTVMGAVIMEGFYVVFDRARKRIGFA

[4] = molecular target: T1, BACE1; experiment: Measurement of BACE1 inhibition by time resolved fluorescence resonance energy transfer (TR-FRET); format: biochemical; conditions: Eu-CEVNLDAEFK-QSY 7 substrate, read-out: Test Example 2 IC50
Target sequence in this assay (P56817 75-416): as above

[5] = Test Example 3 IC50, Aβ40 production

Chain of hERG potassium channel (Q12809 whole entry): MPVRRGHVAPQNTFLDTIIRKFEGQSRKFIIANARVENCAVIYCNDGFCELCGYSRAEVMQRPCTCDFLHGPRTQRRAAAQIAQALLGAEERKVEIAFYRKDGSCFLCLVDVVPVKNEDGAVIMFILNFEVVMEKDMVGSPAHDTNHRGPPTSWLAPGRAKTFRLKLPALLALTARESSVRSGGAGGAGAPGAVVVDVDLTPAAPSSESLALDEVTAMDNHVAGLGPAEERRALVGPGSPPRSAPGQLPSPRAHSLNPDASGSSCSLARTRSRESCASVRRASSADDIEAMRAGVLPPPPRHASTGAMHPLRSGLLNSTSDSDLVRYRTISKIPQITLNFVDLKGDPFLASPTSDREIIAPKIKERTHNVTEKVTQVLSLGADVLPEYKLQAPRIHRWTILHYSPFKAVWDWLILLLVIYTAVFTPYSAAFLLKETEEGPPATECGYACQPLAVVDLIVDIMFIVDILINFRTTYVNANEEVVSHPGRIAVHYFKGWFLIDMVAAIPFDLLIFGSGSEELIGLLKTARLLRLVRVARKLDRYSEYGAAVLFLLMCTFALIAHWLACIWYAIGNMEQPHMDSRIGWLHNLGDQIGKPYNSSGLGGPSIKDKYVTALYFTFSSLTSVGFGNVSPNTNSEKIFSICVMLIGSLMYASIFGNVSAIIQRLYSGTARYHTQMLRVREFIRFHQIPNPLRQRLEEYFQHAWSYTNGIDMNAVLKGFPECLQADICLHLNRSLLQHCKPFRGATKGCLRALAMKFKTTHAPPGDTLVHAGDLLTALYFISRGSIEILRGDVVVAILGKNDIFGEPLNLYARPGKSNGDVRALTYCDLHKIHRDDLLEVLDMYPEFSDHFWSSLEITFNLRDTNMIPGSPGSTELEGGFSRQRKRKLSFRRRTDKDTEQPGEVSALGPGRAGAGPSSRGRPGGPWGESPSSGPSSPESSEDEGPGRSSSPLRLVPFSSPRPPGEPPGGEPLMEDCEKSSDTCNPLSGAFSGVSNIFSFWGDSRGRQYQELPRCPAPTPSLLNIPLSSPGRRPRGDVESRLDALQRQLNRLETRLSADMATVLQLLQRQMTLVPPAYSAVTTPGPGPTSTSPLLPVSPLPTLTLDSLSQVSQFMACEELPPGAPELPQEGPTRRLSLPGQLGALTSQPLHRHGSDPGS

IC50 [4]	SMILES	IC50 [1]	IC50 [2, 5]	IC50 [3]	selectivity ratio ([1]; human, CHO-K1 cells stably expressing hERG, pH 7.4)	Ki [3]	IC50 ([2]; read-out: Test Example 3 IC50, Aβ40 production)
–	NC1=NC2(CO1)c1cc(Br)ccc1OC(Cc1ccccc1)C21COC1 (single isomer, unassigned) [RP 15a]	> 10000 nM	1100 nM	1720 nM	–	–	–
–	NC1=NC2(CO1)c1cc(Br)ccc1OC(Cc1ccccc1)C21COC1 (single isomer, unassigned) [RP 15b]	7930 nM	440 nM	1010 nM	–	–	–
–	NC1=NC2(CO1)c1cc(Br)ccc1OC(CC1CC1)C21COC1 (single isomer, unassigned) [RP 16b]	> 10000 nM	4800 nM	4570 nM	–	–	–
–	CC#Cc1cncc(-c2ccc3c(c2)C2(COC(N)=N2)C2(CC2)CO3)c1 (single isomer, unassigned) [RP 52a, 6′-[5-(prop-1-yn-1-yl)pyridin-3-yl]dispiro[cyclopropane-1,3′-chromene-4′,4″-[1,3]oxazol]-2″-amine]	4830 nM	75 nM	161 nM	–	–	–
–	CC1(C)Oc2ccc(NC(=O)c3ccc(F)cn3)cc2[C@@]2(COC(N)=N2)C12CC2 [Example 222]	> 10000 nM	0.62 nM	138 nM	> 109	91.5 nM	–
–	COCc1cnn(-c2ccc3c(c2)C2(COC(N)=N2)C2(COC2)C2(CCC2)O3)c1 (stereo not shown) [RP 4]	> 10000 nM	7200 nM	12600 nM	–	–	–
–	NC1=NC2(CO1)c1cc(-c3cncnc3)ccc1OC1(CCC1)C21COC1 (stereo not shown) [RP 5]	> 10000 nM	590 nM	1560 nM	–	–	–
–	CC1(C)Oc2ccc(Br)cc2C2(COC(N)=N2)C12COC2 (stereo not shown) [RP 6, 6′-bromo-2′,2′-dimethyldispiro[1,3-oxazole-4,4′-chromene-3′,3″-oxetan]-2-amine]	> 10000 nM	3900 nM	11700 nM	–	–	–
32900 nM	NC1=NC2(CO1)c1cc(C3=CCOCC3)ccc1OCC21COC1 (stereo not shown) [RP 24]	–	–	37900 nM	–	–	–
–	NC1=NC2(CO1)c1cc(-c3cc(Cl)cnc3F)ccc1OCC21COC1 (stereo not shown) [RP 34]	> 10000 nM	260 nM	1240 nM	–	–	–
55400 nM	Cc1cc(-c2ccc3c(c2)C2(COC(N)=N2)C2(COC2)CO3)ccn1 (stereo not shown) [RP 37]	–	–	–	–	–	–
–	CC1(C)Oc2ccc(Br)cc2C2(CSC(N)=N2)C12COC2 (stereo not shown) [RP 42]	> 10000 nM	5900 nM	16100 nM	–	–	–
–	NC1=NC2(CO1)c1cc(Nc3ncccc3Cl)ccc1OCC21COC1 (stereo not shown) [RP 43, 6′-(3-chloropyridin-2-yl)aminodispiro[1,3-oxazole-4,4′-chromene-3′,3″-oxetane]-2-amine]	> 10000 nM	1400 nM	1960 nM	–	–	–
–	COc1cccnc1Nc1ccc2c(c1)C1(COC(N)=N1)C1(COC1)C1(CCC1)O2 (stereo not shown) [RP 45]	> 10000 nM	57 nM	1040 nM	–	–	–
–	CC(C)Cc1ccc2c(c1)C1(COC(N)=N1)C1(COC1)C1(CCC1)O2 (stereo not shown) [RP 46, 6′-isobutyltrispiro[cyclobutane-1,2′-chromene-4′,4″-[1,3]oxazole-3′,3′″-oxetan]-2″-amine]	> 10000 nM	1400 nM	8940 nM	–	–	–
–	CC1(C)Oc2ccc(-c3cncnc3)cc2C2(CSC(N)=N2)C12COC2 (stereo not shown) [RP 54, 2′,2′-dimethyl-6′-(pyrimidin-5-yl)dispiro[oxetane-3,3′-chromene-4′,4″-[1,3]thiazol]-2″-amine hydrochloride]	> 10000 nM	79 nM	406 nM	–	–	–
–	NC1=NC2(CO1)c1cc(-c3cncc(OCC(F)F)c3)ccc1OCC21CC1 (stereo not shown) [RP 59]	6900 nM	76 nM	1110 nM	–	–	–
–	NC1=NC2(CO1)c1cc(-c3cnc4[nH]ccc4c3)ccc1OCC21CC1 (stereo not shown) [RP 61, 6′-(1H-pyrrolo[2,3-b]pyridin-5-yl)dispiro[cyclopropane-1,3′-chromene-4′,4″-[1,3]oxazol]-2″-amine]	9220 nM	350 nM	–	–	–	–
–	CCc1cncc(-c2ccc3c(c2)C2(COC(N)=N2)C2(CC2)CO3)c1 (stereo not shown) [RP 63]	4480 nM	3300 nM	7900 nM	–	–	–
–	CC#Cc1cncc(-c2ccc3c(c2)C2(CSC(N)=N2)C2(COC2)CO3)c1 (stereo not shown) [RP 68]	6050 nM	500 nM	345 nM	–	–	–
–	NC1=NC2(CO1)c1cc(-c3cccnc3F)ccc1OC1(CCC1)C21COC1 (stereo not shown) [RP 71]	> 10000 nM	110 nM	1080 nM	–	–	–
–	Cc1cncc(-c2ccc3c(c2)C2(COC(N)=N2)C2(COC2)C2(CCC2)O3)c1 (stereo not shown) [RP 75, 6′-(5-methylpyridin-3-yl)trispiro[cyclobutane-1,2′-chromene-4′,4″-[1,3]oxazole-3′,3′″-oxetan]-2″-amine]	> 10000 nM	1100 nM	3670 nM	–	–	–
–	CCC1Oc2ccc(-c3cncnc3)cc2C2(COC(N)=N2)C12COC2 (stereo not shown) [RP 84]	> 10000 nM	410 nM	735 nM	–	–	–
–	NC1=NC2(CO1)c1cc(-c3cncnc3)ccc1OC1(CCCC1)C21COC1 (stereo not shown) [RP 85]	> 10000 nM	77 nM	319 nM	–	–	–
–	CC#Cc1cncc(-c2ccc3c(c2)C2(COC(N)=N2)C2(COC2)C(CC)O3)c1 (stereo not shown) [RP 86]	7940 nM	58 nM	143 nM	–	107 nM	–
–	NC1=NC2(CO1)c1cc(-c3cncnc3)ccc1OC(C1CC1)C21COC1 (stereo not shown) [RP 88]	> 10000 nM	1400 nM	2510 nM	–	–	–

IC50 [4]	SMILES	IC50 [1]	IC50 [2, 5]	IC50 [3]	selectivity ratio ([1]; human, CHO-K1 cells stably expressing hERG, pH 7.4)	Ki [3]	IC50 ([2]; read-out: Test Example 3 IC50, Aβ40 production)
–	CCCC1Oc2ccc(-c3cncnc3)cc2C2(COC(N)=N2)C12COC2 (stereo not shown) [RP 91]	> 10000 nM	340 nM	656 nM	–	–	–
–	CC#Cc1cncc(-c2ccc3c(c2)C2(COC(N)=N2)C2(COC2)C(CCC)O3)c1 (stereo not shown) [RP 92]	5340 nM	37 nM	124 nM	–	87.9 nM	–
–	NC1=NC2(CO1)c1cc(-c3cncc(C(F)(F)F)c3)ccc1OC1(CCC1)C21COC1 (stereo not shown) [RP 99]	> 10000 nM	1900 nM	2970 nM	–	–	–
–	NC1=NC2(CO1)c1cc(-c3cncnc3)ccc1OCC21CC1 (stereo not shown) [RP 100]	> 10000 nM	250 nM	2620 nM	–	–	–
–	NC1=NC2(CO1)c1cc(-c3cncnc3)ccc1OCC21CCC1 (stereo not shown) [RP 101]	5280 nM	–	7650 nM	–	–	–
–	NC1=NC2(CO1)c1cc(-c3cncnc3)c(F)cc1OCC21CC1 (stereo not shown) [RP 102]	> 10000 nM	240 nM	1610 nM	–	–	–
–	COc1cncc(-c2ccc3c(c2)C2(COC(N)=N2)C2(CC2)CO3)c1 (stereo not shown) [RP 105]	7900 nM	340 nM	2940 nM	–	–	–
–	CCOc1cncc(-c2ccc3c(c2)C2(COC(N)=N2)C2(CC2)CO3)c1 (stereo not shown) [RP 106]	5750 nM	160 nM	1830 nM	–	–	–
–	CC#Cc1cncc(-c2ccc3c(c2)C2(COC(N)=N2)C2(CC2)CO3)c1 (stereo not shown) [RP 111]	1980 nM	140 nM	287 nM	–	252 nM	–
–	NC1=NC2(CO1)c1cc(-c3cncc(C(F)F)c3)ccc1OC1(CCC1)C21COC1 (stereo not shown) [RP 118]	> 10000 nM	990 nM	1810 nM	–	–	–
1060 nM	CC1(C)Oc2ccc(-c3ccnc(Cl)c3)cc2C2(COC(N)=N2)C12COC2 (stereo not shown) [RP 163]	–	–	–	–	–	–
2310 nM	COc1cc(-c2ccc3c(c2)C2(COC(N)=N2)C2(COC2)C(C)(C)O3)ccn1 (stereo not shown) [RP 164]	–	–	–	–	–	–
2160 nM	CCC1CC=C(c2ccc3c(c2)C2(COC(N)=N2)C2(COC2)C(C)(C)O3)CC1 (stereo not shown) [RP 172]	–	–	2240 nM	–	–	–
2420 nM	CC1(C)Oc2ccc(-c3cccc4[nH]ccc34)cc2C2(COC(N)=N2)C12COC2 (stereo not shown) [RP 186]	–	–	–	–	–	–
–	N#Cc1cnc(C(=O)Nc2ccc3c(c2)C2(COC(N)=N2)C2(CC2)CO3)c(Cl)c1 (stereo not shown) [RP 192]	> 10000 nM	–	318 nM	–	280 nM	–
–	NC1=NC2(c3cc(-c4cncnc4)ccc3OCC23CC3)C(F)(F)CS1 (stereo not shown) [RP 198, 5″,5″-difluoro-6′-(pyrimidin-5-yl)-5″,6″-dihydrodispiro[cyclopropane-1,3′-chromene-4′,4″-[1,3]thiazin]-2″-amine]	> 1000 nM	–	14900 nM	–	–	–
–	NC1=NC2(c3cc(-c4cncnc4)ccc3OCC23CC3)c2cccc(F)c21 (stereo not shown) [RP 199]	4250 nM	240 nM	736 nM	–	–	–
–	NC1=NC2(CO1)c1cc(-c3cncnc3)ccc1OC(Cc1ccccc1)C21COC1 (stereo not shown) [RP 200]	> 10000 nM	26 nM	128 nM	–	92.1 nM	–
–	NC1=NC2(CO1)c1cc(-c3cncnc3)ccc1OC(Cc1ccccc1)C21COC1 (stereo not shown) [RP 202]	7730 nM	–	145 nM	–	113 nM	26 nM
–	NC1=NC2(CO1)c1cc(-c3cncnc3)ccc1OC(CC1CC1)C21COC1 (stereo not shown) [RP 204]	> 10000 nM	240 nM	388 nM	–	–	–
–	NC1=NC2(CO1)c1cc(-c3cncnc3)ccc1OC(CC1CC1)C21COC1 (stereo not shown) [RP 207]	> 10000 nM	160 nM	460 nM	–	–	–
–	NC1=NC2(CO1)c1cc(-c3cncnc3)ccc1OCC21CC(F)(F)C1 (stereo not shown) [RP 208]	> 10000 nM	6100 nM	7760 nM	–	–	–
–	NC1=NC2(CO1)c1cc(-c3cccnc3)ccc1OC1(CCC1)C21COC1 (stereo not shown) [RP 209]	> 10000 nM	830 nM	2000 nM	–	–	–
19400 nM	NC1=NC2(CO1)c1cc(-c3cnc4ccccc4c3)ccc1OC1(CCC1)C21COC1 (stereo not shown) [RP 211]	–	–	–	–	–	–
–	NC1=NC2(COC1)c1cc(-c3cncnc3)ccc1OCC21CC1 (stereo not shown) [RP 215, 6′-(pyrimidin-5-yl)-6″H-dispiro[cyclopropane-1,3′-chromene-4′,3″-[1,4]oxazin]-5″-amine]	> 10000 nM	240 nM	1210 nM	–	–	–
